Laboratory results from patent US12331040B2 (Karyopharm Therapeutics Inc., priority 2013, dated 2025).
Like-named read-outs stand apart in the source and are kept apart here.

Tests used:
MDA-MB-231 cells = test: MTT cell proliferation assay; assay type: cell-based; conditions: Homo sapiens; MDA-MB-231 cell line; read-out: MTT Assay IC50, MDA-MB-231
Procedure: (§1) The MTT cell proliferation assay was used to study the cytotoxic properties of the compounds. The assay was performed according to the method described by Roche Molecular Biochemicals, with minor modifications. The assay is based on the cleavage of the tetrazolium salt, MTT, in the presence of an electron-coupling reagent. The water-insoluble formazan salt produced must be solubilized in an additional step. Cells grown in a 96-well tissue culture plate were incubated with the MTT solution for approximately 4 hours. After this incubation period, a water-insoluble formazan dye formed. After solubilization, the formazan dye was quantitated using a scanning multi-well spectrophotometer (ELISA reader). […] The cells were seeded at 5,000-10,000 cells in each well of 96-well plate in 100 μL of fresh culture medium and were allowed to attach overnight. The stock solutions of the compounds were diluted in 100 μL cell culture medium to obtain eight concentrations of each test compound, ranging from 1 nM to 30 μM. […] All optical densities were measured at 490 nm using a Vmax Kinetic Microplate Reader (Molecular Devices). In most cases, the assay was performed in duplicate and the results were presented as a mean percent inhibition to the negative control±SE. The following formula was used to calculate the percent of inhibition: Inhibition (%)=(1−(ODo/OD))×100.
(§2) The M24 cell line is derived from human melanoma cells. The U2OS cell line is a human osteosarcoma cell line expressing wild type p53 and Rb, but lacking p16. The MM1S cell line is a multiple myeloma cell line; the parent cell line, MM.1, was established from peripheral blood of a multiple myeloma patient who had become resistant to steroid-based therapy. The RPMI8226 cell line is derived from human B lymphocyte cells. NHDF cells are normal human dermal fibroblast cells. The MRC-5 cell line is derived from normal lung tissue of a fetus. The PC3 cell line is a human prostate cancer cell line. The DU-145 cell line is a human prostate cancer cell line. The MDA-MB-231 cell line is a human breast adenocarcinoma cell line. The MDA-MB-468 cell line is a human breast carcinoma cell line. HL-60 cells are human promyelocytic leukemia cells. Hep G2 cells are human hepatocellular carcinoma cells. HEP 3B cells are human hepatocellular carcinoma cells. The DLD-1 cell line is a colorectal adenocarcinoma cell line. The HCT-15 cell line is a human colon carcinoma cell line. The Colo-205 cell line is derived from a human adenocarcinoma of the colon. The LoVo cell line is a human colon adenocarcinoma cell line.

3T3 cells = test: MTT cell proliferation assay; assay type: cell-based; conditions: Mus musculus
Procedure, shortened: (§3)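 Cytotoxicity was measured by MTT: OD490 of the solubilized formazan after roughly 4 h with MTT reagent, reported as mean percent inhibition relative to the negative control. Test compounds covered eight concentrations between 1 nM and 30 μM, added to 5,000–10,000 cells per well that had attached overnight.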

MS751 cells = test: MTT cell proliferation assay; assay type: cell-based; conditions: Homo sapiens
Procedure, shortened: as §3

Z138 cells = test: MTT cell proliferation assay; assay type: cell-based; conditions: Homo sapiens
Procedure, shortened: as §3

MDA-MB-468 tumors = test: Antibody staining of resected MDA-MB-468 tumors from treated mice; assay type: in vivo, mouse; conditions: mice bearing MDA-MB-468 tumors; 30 mg/kg orally every day for three weeks
Procedure: Mice bearing MDA-MB-468 tumors were treated for three weeks with 30 mg/kg Compound 525 orally every day. Tumors were resected from the mice and fixed in buffered formalin and put into paraffin blocks. The blocks were sectioned and stained with antibodies against Ki67, Apotag, c-Myc, p-S473-Akt1 or p-S450-Akt1. The cells were imaged with a Nikon microscope.

RPMI8226 cells = test: MTT cell proliferation assay; assay type: cell-based; conditions: Homo sapiens, RPMI-8226
Procedure: as §1, §2

MM1S cells = test: MTT cell proliferation assay; assay type: cell-based; conditions: Homo sapiens, MM1.S
Procedure: as §1, §2

HL-60 cells = test: MTT cell proliferation assay; assay type: cell-based; conditions: Homo sapiens
Procedure: as §1, §2

[1] = NIH3T3, approximately 64-72 hours incubation, read-out: MTT Assay IC50 3T3
[2] = MS751, MS751 cells, approximately 64-72 hours incubation, read-out: MTT Assay IC50 MS-751
[3] = Z-138, Z138 cells, approximately 64-72 hours incubation, read-out: MTT Assay IC50 Z-138
[4] = NIH3T3, approximately 64-72 hours incubation, read-out: MTT Assay IC50, 3T3
[5] = MS751, MS751 cells, approximately 64-72 hours incubation, read-out: MTT Assay IC50, MS-751
[6] = Z-138, Z138 cells, approximately 64-72 hours incubation, read-out: MTT Assay IC50, Z-138

| SMILES | IC50 (3T3 cells; [1]) | IC50 (MS751 cells; [2]) | IC50 (Z138 cells; [3]) | IC50 (3T3 cells; [4]) | IC50 (MS751 cells; [5]) | IC50 (Z138 cells; [6]) | also measured |
| --- | --- | --- | --- | --- | --- | --- | --- |
| Nc1ccc(/C=C/C(=O)NCc2cc3cc(-c4ccc(C(=O)N5CCOCC5)cn4)cc(C(F)(F)F)c3o2)cn1 [Compound 521, (E)-3-(6-aminopyridin-3-yl)-N-((5-(5-(morpholine-4-carbonyl)pyridin-2-yl)-7-(trifluoromethyl)benzofuran-2-yl)methyl)acrylamide] | > 10000 nM | < 100 nM | < 100 nM |  |  |  | IC50 (MDA-MB-231 cells): 100 to 5000 nM |
| Nc1ccc(/C=C/C(=O)NCc2cc3cc(-c4ccc(C(=O)N5CC[C@H](F)C5)cc4)cc(C(F)(F)F)c3o2)cn1 [Compound 525, (S,E)-3-(6-aminopyridin-3-yl)-N-((5-(4-(3-fluoropyrrolidine-1-carbonyl)phenyl)-7-(trifluoromethyl)benzofuran-2-yl)methyl)acrylamide] | > 10000 nM | 100 to 5000 nM | 100 to 5000 nM |  |  |  | PAK4 pathway signaling through Akt (phospho-Akt1) in tumors (MDA-MB-468 tumors): overall reductions; apoptosis (Apotag) in tumors (MDA-MB-468 tumors): increase; c-Myc in tumors (MDA-MB-468 tumors): overall reductions; proliferation (Ki67) in tumors (MDA-MB-468 tumors): reduction; IC50 (RPMI8226 cells; RPMI8226 cell line, read-out: MTT Assay IC50, RPMI8226): 100 to 5000 nM; IC50 (RPMI8226 cells; RPMI8226 cells, 72-hour MTT, read-out: RPMI8226 MTT IC50): 430 nM; IC50 (MM1S cells; MM1S cell line, read-out: MTT Assay IC50, MM1S): 100 to 5000 nM; IC50 (MM1S cells; MM1S cells, 72-hour MTT, read-out: MM1S MTT IC50): 310 nM; IC50 (HL-60 cells; HL-60 cell line, read-out: MTT Assay IC50, HL-60): 100 to 5000 nM; IC50 (HL-60 cells; HL-60 cells, 72-hour MTT, read-out: HL-60 MTT IC50): 1060 nM; IC50 (3T3 cells; NIH3T3, 72-hour MTT, read-out: 3T3 MTT IC50): > 10000 nM; IC50 (MS751 cells; MS751, 72 h, MS751 cells, 72-hour MTT, read-out: MS751 MTT IC50): 300 nM; IC50 (Z138 cells; Z-138, 72 h, Z-138 cells, 72-hour MTT, read-out: Z-138 MTT IC50): 100 nM |
| CC1(C)COCCN1C(=O)c1ccc(-c2cc(C(F)(F)F)c3oc(CNC(=O)/C=C/c4ccc(N)nc4)cc3c2)cc1 [Compound 517, (E)-3-(6-aminopyridin-3-yl)-N-((5-(4-(3,3-dimethylmorpholine-4-carbonyl)phenyl)-7-(trifluoromethyl)benzofuran-2-yl)methyl)acrylamide] | > 10000 nM | 100 to 5000 nM | 100 to 5000 nM |  |  |  | IC50 (MDA-MB-231 cells): 100 to 5000 nM |
| CN1C(=O)c2ccc(-c3cc(Cl)c4oc(CNC(=O)/C=C/c5ccc(N)nc5)cc4c3)cc2C1=O [Compound 514, (E)-3-(6-aminopyridin-3-yl)-N-((7-chloro-5-(2-methyl-1,3-dioxoisoindolin-5-yl)benzofuran-2-yl)methyl)acrylamide] | > 10000 nM | 5000 to 10000 nM | 100 to 5000 nM |  |  |  |  |
| Nc1ccc(/C=C/C(=O)NCc2cc3cc(-c4ccc(C(=O)N5CCC(F)(F)CC5)cc4)cc(-c4ccccn4)c3o2)cn1 [Compound 746, (E)-3-(6-aminopyridin-3-yl)-N-((5-(4-(4,4-difluoropiperidine-1-carbonyl)phenyl)-7-(pyridin-2-yl)benzofuran-2-yl)methyl)acrylamide] |  |  |  | 100 to 5000 nM | < 100 nM | < 100 nM |  |
| Nc1ccc(/C=C/C(=O)NCc2coc3c(Cl)cc(-c4ccc(C(=O)N5CCC(F)(F)CC5)cn4)cc23)cn1 [Compound 766, (E)-3-(6-aminopyridin-3-yl)-N-((7-chloro-5-(5-(4,4-difluoropiperidine-1-carbonyl)pyridin-2-yl)benzofuran-3-yl)methyl)acrylamide] |  |  |  | 5000 to 10000 nM | 100 to 5000 nM | 100 to 5000 nM |  |
| Nc1ccc(/C=C/C(=O)NCc2cc3cc(-c4ccc(C(=O)N5CCC(F)(F)CC5)cc4)cc(-c4cccc(F)c4)c3o2)cn1 [Compound 726, (E)-3-(6-aminopyridin-3-yl)-N-((5-(4-(4,4-difluoropiperidine-1-carbonyl)phenyl)-7-(3-fluorophenyl)benzofuran-2-yl)methyl)acrylamide] |  |  |  | 100 to 5000 nM | < 100 nM | < 100 nM |  |
| Nc1ccc(/C=C/C(=O)NCc2cc3cc(-c4ccc(F)c(C(=O)N5CCOCC5)c4)cc(C(F)(F)F)c3o2)cn1 [Compound 563, (E)-3-(6-aminopyridin-3-yl)-N-((5-(4-fluoro-3-(morpholine-4-carbonyl)phenyl)-7-(trifluoromethyl)benzofuran-2-yl)methyl)acrylamide] | > 10000 nM | 100 to 5000 nM | < 100 nM |  |  |  |  |
| O=C(/C=C/c1cccnc1)NCc1cc2cc(-c3ccc(C(=O)N4CCC(F)(F)CC4)cc3)cc(OC(F)(F)F)c2o1 [Compound 687, (E)-N-((5-(4-(4,4-difluoropiperidine-1-carbonyl)phenyl)-7-(trifluoromethoxy)benzofuran-2-yl)methyl)-3-(pyridin-3-yl)acrylamide] |  |  |  | 100 to 5000 nM | < 100 nM | < 100 nM |  |
| Nc1ccc(/C=C/C(=O)NCc2cc3cc(-c4ccc(C(=O)N5CCC(Cl)CC5)cc4)cc(C(F)(F)F)c3o2)cn1 [Compound 607, (E)-3-(6-aminopyridin-3-yl)-N-((5-(4-(4-chloropiperidine-1-carbonyl)phenyl)-7-(trifluoromethyl)benzofuran-2-yl)methyl)acrylamide] | > 10000 nM | 100 to 5000 nM | 100 to 5000 nM |  |  |  |  |
| CC1(C)C2CN(C(=O)c3ccc(-c4cc(C(F)(F)F)c5oc(CNC(=O)/C=C/c6ccc(N)nc6)cc5c4)nc3)CC21 (stereo not drawn) [Compound 631, (E)-3-(6-aminopyridin-3-yl)-N-((5-(5-(6,6-dimethyl-3-azabicyclo[3.1.0]hexane-3-carbonyl)pyridin-2-yl)-7-(trifluoromethyl)benzofuran-2-yl)methyl)acrylamide] | > 10000 nM | 100 to 5000 nM | 100 to 5000 nM |  |  |  |  |
| Nc1ccc(/C=C/C(=O)NCc2cc3cc(-c4ccc(C(=O)NC5CCC(F)(F)CC5)cn4)cc(C(F)(F)F)c3o2)cn1 [Compound 629, (E)-6-(2-((3-(6-aminopyridin-3-yl)acrylamido)methyl)-7-(trifluoromethyl)benzofuran-5-yl)-N-(4,4-difluorocyclohexyl)nicotinamide] | > 10000 nM | 100 to 5000 nM | 100 to 5000 nM |  |  |  |  |
